US20240199618A1, “NOVEL N-ACYL-[3-SUBSTITUTED]-[8-SUBSTITUTED]-5,6-DIHYDRO-[1,2,4]TRIAZOLO[4,3-a]PYRAZINES AS SELECTIVE NK-3 RECEPTOR ANTAGONISTS, PHARMACEUTICAL COMPOSITION, METHODS FOR USE IN NK-3 RECEPTOR-MEDIATED DISORDERS” (Ogeda SA, priority 2013, published 2024)
Read-outs that look alike come from different tables or passages of the source.

Tests used:
[1] = target: human NK-1 receptor (Homo sapiens (Human), UniProt P25103); experiment: Selectivity assay: [3H] substance P binding, human NK-1 receptor; conditions: 2 nM [3H] substance P, CHO membranes; read-out: hNK-1 (Ki)
Protocol: Selectivity of the compounds of the invention was determined over the other human NK receptors, namely NK-1 and NK-2 receptors.
The affinity of compounds of the invention for the NK-1 receptor was evaluated in CHO recombinant cells which express the human NK-1 receptor. Membrane suspensions were prepared from these cells. The following radioligand: [^3H] substance P (PerkinElmer Cat #NET111520) was used in this assay. Binding assays were performed in a 50 mM Tris/5 mM MnCl2/150 mM NaCl/0.1% BSA at pH 7.4. Binding assays consisted of 25 μl of membrane suspension (approximately 5 μg of protein/well in a 96 well plate), 50 μl of compound or reference ligand (Substance P) at increasing concentrations (diluted in assay buffer) and 2 nM [^3H] substance P. The plate was incubated 60 min at 25° C. in a water bath and then filtered over GF/C filters (Perkin Elmer, 6005174, presoaked in 0.5% PEI for 2 h at room temperature) with a Filtration unit (Perkin Elmer). The radioactivity retained on the filters was measured by using the TopCount-NXT reader (Packard).

[2] = target: T1, human NK-3 receptor (Homo sapiens (Human), UniProt P29371); experiment: 3H-SB222200 binding competition assay with human NK-3 receptor
Protocol: The affinity of compounds of the invention for the human NK-3 receptor was determined by measuring the ability of compounds of the invention to competitively and reversibly displace a well-characterized NK-3 radioligand in a concentration-dependent manner.
^3H-SB222200 Binding Competition Assay with Human NK-3 Receptor
Membranes were prepared from Chinese hamster ovary recombinant cells stably expressing the human NK-3 receptor. The membranes were incubated with 5 nM ^3H-SB222200 (ARC) in a HEPES 25 mM/NaCl 0.1M/CaCl2 1 mM/MgCl2 5 mM/BSA 0.5%/Saponin 10 μg/ml buffer at pH 7.4 and various concentrations of compounds of the invention. The amount of ^3H-SB222200 bound to the receptor was determined after filtration by the quantification of membrane associated radioactivity using the TopCount-NXT reader (Packard).

[3] = target: T1, human NK-3 receptor; experiment: Aequorin functional assay with human NK-3 receptor (antagonist testing vs NKA); format: cell-based; conditions: CHO cells, NKA at EC80 (3 nM); read-out: Functional assay: Aequorin assay with human NK-3 receptor hNK-3-AEQ (antagonist IC50)
Protocol: Aequorin Assay with Human NK-3 Receptor
Changes in intracellular calcium levels are a recognized indicator of G protein-coupled receptor activity. The efficacy of compounds of the invention to inhibit NKA-mediated NK-3 receptor activation was assessed by an in vitro Aequorin functional assay. Chinese Hamster Ovary recombinant cells expressing the human NK-3 receptor and a construct that encodes the photoprotein apoaequorin were used for this assay. In the presence of the cofactor coelenterazine, apoaequorin emits a measurable luminescence that is proportional to the amount of intracellular (cytoplasmic) free calcium.
The antagonist activity of compounds of the invention is measured following pre-incubation (3 minutes) of the compound (at various concentrations) with the cells, followed by addition of the reference agonist (NKA) at a final concentration equivalent to the EC80 (3 nM) and recording of emitted light (FDSS 6000 Hamamatsu) over the subsequent 90-second period. The intensity of the emitted light is integrated using the reader software. Compound antagonist activity is measured based on the concentration-dependent inhibition of the luminescence response to the addition of Neurokinin A.

[4] = system: plasma protein; experiment: Determination of plasma protein binding (equilibrium dialysis, RED); format: in vitro ADME; conditions: 4 hours at 37° C.
Source text: Determination of plasma protein binding The pharmacokinetic and pharmacodynamic properties of chemicals/drugs are largely a function of the reversible binding of chemicals to plasma or serum proteins. […] Consequently, the extent of the plasma protein binding (PPB) of a compound influences its action as well as its distribution and elimination.
The determination of plasma protein binding (PPB) of a compound is enabled by equilibrium dialysis, an accepted and standard method for reliable estimation of the non-bound drug fraction in plasma. RED (Rapid Equilibrium Dialysis) device insert is made of two side-by-side chambers separated by an O-ring-sealed vertical cylinder of dialysis membrane (MWCO ˜8,000). […] After 4 hours incubation at 37° C. under shaking, an aliquot is removed from each chamber and analyzed by a LC-MS/MS procedure enables the determination of both free and bound drug.
The “free fraction” may be calculated as 100%−% rPPB (i.e. the complementary percentage of that disclosed in Table 4, corresponding to the drug concentration that is unbound and therefore available to engage biological target and elicit pharmacological activity).

[5] = target: human NK-2 receptor (Homo sapiens (Human), UniProt P21452); experiment: Selectivity assay: [125I]-Neurokinin A binding, human NK-2 receptor; conditions: 0.1 nM [125I]-Neurokinin A, CHO membranes; read-out: hNK-2 (Ki)
Protocol: The affinity of compounds of the invention for the NK-2 receptor was evaluated in CHO recombinant cells which express the human NK-2 receptor. Membrane suspensions were prepared from these cells. […] Binding assays were performed in a 25 mM HEPES/1 mM CaCl2)/5 mM MgCl2/0.5% BSA/10 μg/ml saponin, at pH 7.4. […] The radioactivity retained on the filters was measured by using the TopCount-NXT reader (Packard).

[6] = Table 2, 5 nM 3H-SB222200, CHO membranes, read-out: Competitive binding assay with human NK-3 receptor hNK-3 (Ki)
[7] = Table 3 (selectivity table), read-out: hNK-3 (Ki)

Sequence of human NK-1 receptor (P25103 whole entry): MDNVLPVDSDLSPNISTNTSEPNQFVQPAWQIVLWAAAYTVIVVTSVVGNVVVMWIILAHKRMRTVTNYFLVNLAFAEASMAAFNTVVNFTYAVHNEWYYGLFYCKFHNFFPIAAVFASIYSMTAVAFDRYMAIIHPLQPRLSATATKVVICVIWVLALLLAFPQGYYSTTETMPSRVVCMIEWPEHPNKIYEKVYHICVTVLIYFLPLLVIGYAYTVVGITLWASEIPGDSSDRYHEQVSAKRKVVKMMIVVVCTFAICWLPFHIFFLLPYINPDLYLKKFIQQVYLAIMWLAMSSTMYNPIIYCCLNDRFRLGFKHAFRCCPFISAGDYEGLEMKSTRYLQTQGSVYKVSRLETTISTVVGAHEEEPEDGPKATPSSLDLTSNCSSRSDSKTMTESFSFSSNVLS
T1 sequence (P29371 whole entry): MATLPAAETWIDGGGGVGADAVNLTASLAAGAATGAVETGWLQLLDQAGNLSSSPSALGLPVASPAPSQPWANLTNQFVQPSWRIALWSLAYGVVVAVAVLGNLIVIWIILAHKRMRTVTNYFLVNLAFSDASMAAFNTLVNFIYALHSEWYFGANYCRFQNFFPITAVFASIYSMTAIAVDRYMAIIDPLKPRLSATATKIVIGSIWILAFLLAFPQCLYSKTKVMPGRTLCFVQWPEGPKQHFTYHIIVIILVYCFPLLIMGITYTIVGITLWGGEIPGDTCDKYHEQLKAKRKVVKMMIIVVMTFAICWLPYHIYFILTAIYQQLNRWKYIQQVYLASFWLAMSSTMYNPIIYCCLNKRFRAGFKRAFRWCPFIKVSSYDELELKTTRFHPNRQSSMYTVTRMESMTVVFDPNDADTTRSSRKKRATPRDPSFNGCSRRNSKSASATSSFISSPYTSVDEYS
Sequence of human NK-2 receptor (P21452 whole entry): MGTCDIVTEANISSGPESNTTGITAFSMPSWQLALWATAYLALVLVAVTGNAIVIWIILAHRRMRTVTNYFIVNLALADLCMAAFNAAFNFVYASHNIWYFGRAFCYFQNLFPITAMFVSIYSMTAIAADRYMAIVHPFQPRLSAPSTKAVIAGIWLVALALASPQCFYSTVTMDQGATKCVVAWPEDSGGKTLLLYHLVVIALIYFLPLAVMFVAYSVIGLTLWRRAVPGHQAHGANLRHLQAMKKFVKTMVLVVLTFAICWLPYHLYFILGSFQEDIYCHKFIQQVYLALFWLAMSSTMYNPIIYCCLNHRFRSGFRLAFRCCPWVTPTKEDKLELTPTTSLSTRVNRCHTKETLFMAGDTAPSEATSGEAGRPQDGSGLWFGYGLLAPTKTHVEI

Ki [1] [nM]	Ki [2, 6] [nM]	Ki [2, 7] [nM]	IC50 [3] [nM]	Exposure (% rPPB), bound drug fraction to plasma protein [4] [%]	Ki [5] [nM]	SMILES
> 30000	42	42	57	21	> 30000	Cc1nsc(-c2nnc3n2CCN(C(=O)c2ccc(F)cc2)C3C)n1 (racemic) [Compound 14, (4-fluorophenyl)(8-methyl-3-(3-methyl-1,2,4-thiadiazol-5-yl)-5,6-dihydro-[1,2,4]triazolo[4,3-a]pyrazin-7(8H)-yl)methanone]
–	–	–	–	34	–	CCC1c2nnc(-c3nc(C)ns3)n2CCN1C(=O)c1ccc(F)cc1 (racemic) [Compound 23, (8-ethyl-3-(3-methyl-1,2,4-thiadiazol-5-yl)-5,6-dihydro-[1,2,4]triazolo[4,3-a]pyrazin-7(8H)-yl)(4-fluorophenyl)methanone]
> 30000	70	70	64	31	> 30000	Cc1nsc(-c2nnc3n2CCN(C(=O)c2cc(F)c(F)c(F)c2F)C3C)n1 (racemic) [Compound 31, (8-methyl-3-(3-methyl-1,2,4-thiadiazol-5-yl)-5,6-dihydro-[1,2,4]triazolo[4,3-a]pyrazin-7(8H)-yl)(2,3,4,5-tetrafluorophenyl)methanone]
> 30000	59	59	44	25	> 30000	Cc1nsc(-c2nnc3n2CCN(C(=O)c2ccc(F)c(F)c2)C3C)n1 (racemic) [Compound 32]
> 30000	89	89	120	29	> 30000	Cc1nsc(-c2nnc3n2CCN(C(=O)c2ccc(F)c(F)c2F)C3C)n1 (racemic) [Compound 33, (8-methyl-3-(3-methyl-1,2,4-thiadiazol-5-yl)-5,6-dihydro-[1,2,4]triazolo[4,3-a]pyrazin-7(8H)-yl)(2,3,4-trifluorophenyl)methanone]
> 30000	38	38	62	24	> 30000	Cc1nsc(-c2nnc3n2CCN(C(=O)c2cc(F)c(F)c(F)c2)C3C)n1 (racemic) [Compound 34, (8-methyl-3-(3-methyl-1,2,4-thiadiazol-5-yl)-5,6-dihydro-[1,2,4]triazolo[4,3-a]pyrazin-7(8H)-yl)(3,4,5-trifluorophenyl)methanone]
> 30000	73	73	54	52	30000	Cc1nsc(-c2nnc3n2CCN(C(=O)c2ccc(F)c(Cl)c2)C3C)n1 (racemic) [Compound 35, (3-chloro-4-fluorophenyl)(8-methyl-3-(3-methyl-1,2,4-thiadiazol-5-yl)-5,6-dihydro-[1,2,4]triazolo[4,3-a]pyrazin-7(8H)-yl)methanone]
> 30000	43	43	58	60	36000	Cc1nsc(-c2nnc3n2CCN(C(=O)c2ccc(Cl)c(F)c2)C3C)n1 (racemic) [Compound 36, (4-chloro-3-fluorophenyl)(8-methyl-3-(3-methyl-1,2,4-thiadiazol-5-yl)-5,6-dihydro-[1,2,4]triazolo[4,3-a]pyrazin-7(8H)-yl)methanone]
32000	41	41	52	–	> 30000	Cc1nsc(-c2nnc3n2CCN(C(=O)c2ccc(Cl)cc2)C3C)n1 (racemic) [Compound 37, (4-chlorophenyl)(8-methyl-3-(3-methyl-1,2,4-thiadiazol-5-yl)-5,6-dihydro-[1,2,4]triazolo[4,3-a]pyrazin-7(8H)-yl)methanone]
21000	26	26	34	76	28000	Cc1nsc(-c2nnc3n2CCN(C(=O)c2ccc(Cl)c(Cl)c2)C3C)n1 (racemic) [Compound 38, (3,4-dichlorophenyl)(8-methyl-3-(3-methyl-1,2,4-thiadiazol-5-yl)-5,6-dihydro-[1,2,4]triazolo[4,3-a]pyrazin-7(8H)-yl)methanone]
> 30000	28	28	32	43	> 30000	CCc1nsc(-c2nnc3n2CCN(C(=O)c2ccc(F)cc2)C3C)n1 (racemic) [Compound 39, (3-(3-ethyl-1,2,4-thiadiazol-5-yl)-8-methyl-5,6-dihydro-[1,2,4]triazolo[4,3-a]pyrazin-7(8H)-yl)(4-fluorophenyl)methanone]
> 30000	83	83	130	24	> 30000	CCc1noc(-c2nnc3n2CCN(C(=O)c2ccc(F)cc2)C3C)n1 (racemic) [Compound 40, (3-(3-ethyl-1,2,4-oxadiazol-5-yl)-8-methyl-5,6-dihydro-[1,2,4]triazolo[4,3-a]pyrazin-7(8H)-yl)(4-fluorophenyl)methanone]
> 30000	19	19	32	–	> 30000	Cc1nsc(-c2nnc3n2CCN(C(=O)c2ccc(Cl)cc2)[C@@H]3C)n1 [Compound 3, (R)-(4-chlorophenyl)(8-methyl-3-(3-methyl-1,2,4-thiadiazol-5-yl)-5,6-dihydro-[1,2,4]triazolo[4,3-a]pyrazin-7(8H)-yl)methanone]
22000	32	32	73	–	> 30000	Cc1nsc(-c2nnc3n2CCN(C(=O)c2ccc(F)cc2)[C@@H]3CCO)n1 [Compound 11, (R)-(4-fluorophenyl)(8-(2-hydroxyethyl)-3-(3-methyl-1,2,4-thiadiazol-5-yl)-5,6-dihydro-[1,2,4]triazolo[4,3-a]pyrazin-7(8H)-yl)methanone]
–	–	–	–	24	–	COc1cccc(C(=O)N2CCn3c(-c4nc(C)ns4)nnc3[C@H]2C)c1 [Compound 27, (R)-(3-methoxyphenyl)(8-methyl-3-(3-methyl-1,2,4-thiadiazol-5-yl)-5,6-dihydro-[1,2,4]triazolo[4,3-a]pyrazin-7(8H)-yl)methanone]
